Drawing on PubChem BioAssay (NCI), this text covers TGI and GI50 for 14 molecules.

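Growth conditions: 96-well plates. Treatment: test compound, 48 hours, 5 concentrations. Analysis: linear interpolation between bracketing concentrations; unreached endpoints set to highest concentration. Abbreviation: GI50, concentration required for 50% inhibition of growth. The concentration for full growth arrest is given as TGI.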

Among the test systems are OVCAR-8 ovarian; 786-0 renal; A549 NSCLC; HOP-92 NSCLC; OVCAR-3 ovarian; SW-620 colon; UO-31 renal; HCT-15 colon; HCC-2998 colon; HS 578T breast.
Assay in all cases: NCI anticancer screen, dose series, 48 h

`CCCC(Sc1ccccc1)P(=O)(c1ccccc1)c1ccccc1` (stereo not drawn): the TGI in the experiment with OVCAR-8 ovarian was greater than 100 µM; in the experiment with 786-0 renal, greater than 100 µM; with A549 NSCLC, greater than 100 µM; with HOP-92 NSCLC it was 60.1 µM; in the experiment on OVCAR-3 ovarian it was greater than 100 µM; with SW-620 colon it was greater than 100 µM. In addition, in the experiment on UO-31 renal, the TGI was greater than 100 µM.

Turning to `C1CCOC2(CCC3(CC2)OCCCCO3)OC1`, the TGI in the experiment with OVCAR-8 ovarian, with 786-0 renal, in the experiment on HCT-15 colon, in the experiment with A549 NSCLC, in the experiment on HCC-2998 colon and in the experiment with SW-620 colon was greater than 100 µM each time. For the same molecule, the TGI in the experiment on UO-31 renal is greater than 100 µM.

In the case of `CC(=O)NC1CC2Oc3ccc(C)cc3C(C)(O2)C1O` (stereo not drawn), the TGI in the experiment on OVCAR-8 ovarian, in the experiment on 786-0 renal, with HCT-15 colon, with A549 NSCLC, with OVCAR-3 ovarian and in the experiment on SW-620 colon was greater than 100 µM throughout. This molecule yielded a TGI in the experiment with UO-31 renal greater than 100 µM.

As to `C=C1CCC2[C@@H](CCC3[C@]2(C)CCC[C@]3(C)C(=O)OC)C1CCO` (stereo partly drawn), the TGI with OVCAR-8 ovarian is 37.7 µM; in the experiment on 786-0 renal, 49.2 µM; in the experiment on HCT-15 colon, 27.3 µM; in the experiment with A549 NSCLC, 32.5 µM; with HOP-92 NSCLC, 20.1 µM; in the experiment on OVCAR-3 ovarian, 26 µM. The TGI came out at 26.9 µM in the experiment on SW-620 colon and 31.7 µM with UO-31 renal.

With `O=c1[nH]c(-c2ccc(-c3nc4cc([N+](=O)[O-])ccc4c(=O)[nH]3)cc2)nc2cc([N+](=O)[O-])ccc12`, the TGI in the experiment with OVCAR-8 ovarian, with 786-0 renal, with HCT-15 colon, in the experiment on A549 NSCLC, with HCC-2998 colon and with HOP-92 NSCLC was greater than 100 µM each time. Moreover, the TGI in the experiment with OVCAR-3 ovarian, in the experiment on SW-620 colon and in the experiment with UO-31 renal was greater than 100 µM in each case.

Take `Cn1cc(-c2ccc(-c3cn(C)c4ccc(Cl)cc34)s2)c2cc(Cl)ccc21`: the GI50 is greater than 100 µM in the experiment with HS 578T breast; greater than 100 µM with OVCAR-8 ovarian; greater than 100000 nM in the experiment on 786-0 renal; greater than 100 µM in the experiment with HCT-15 colon; greater than 100 µM in the experiment on A549 NSCLC; greater than 100 µM in the experiment with HCC-2998 colon. The values for the GI50 in the experiment on OVCAR-3 ovarian, with SW-620 colon and in the experiment with UO-31 renal were greater than 100 µM, greater than 100000 nM and greater than 100 µM, respectively. The TGI in the experiment on HS 578T breast, with OVCAR-8 ovarian, in the experiment on 786-0 renal, in the experiment on HCT-15 colon, in the experiment with A549 NSCLC and in the experiment with HCC-2998 colon was greater than 100 µM in each case. The TGI in the experiment with OVCAR-3 ovarian, in the experiment on SW-620 colon and in the experiment with UO-31 renal was greater than 100 µM throughout.

As to `C/C=C/C=C/CCCCCCCCCCCCCC1(OC)C=CC(CC(=O)OC)OO1` (stereo not drawn), the GI50 was 3.99 µM in the experiment on OVCAR-8 ovarian; 1750 nM with 786-0 renal; 3.08 µM in the experiment on HCT-15 colon; 5.57 µM in the experiment with A549 NSCLC; 3.5 µM in the experiment on HCC-2998 colon; 6.7 µM with OVCAR-3 ovarian. Besides, in the experiment with SW-620 colon, the GI50 was 1990 nM. Besides, the TGI in the experiment on OVCAR-8 ovarian stood at 14.5 µM; in the experiment with 786-0 renal, 3.51 µM; in the experiment on HCT-15 colon it was 11.2 µM; with A549 NSCLC, 19.7 µM; with HCC-2998 colon, 9.99 µM; with HOP-92 NSCLC, 4.12 µM. Also, the TGI in the experiment on OVCAR-3 ovarian was found to be 20.6 µM; in the experiment with SW-620 colon, 4.34 µM; in the experiment on UO-31 renal, 7.94 µM.

Turning to `C=CCC(OCCOCC)c1cc(OCCOCC)ccc1OC` (stereo not drawn), the TGI with OVCAR-8 ovarian, in the experiment with 786-0 renal, with HCT-15 colon, in the experiment on A549 NSCLC, with HCC-2998 colon and in the experiment on HOP-92 NSCLC was greater than 100 µM each time. Also, the TGI with OVCAR-3 ovarian, in the experiment with SW-620 colon and in the experiment with UO-31 renal was greater than 100 µM in each case.

With `Cc1ccc(Sc2ccc(C)cc2[N+](=O)[O-])c([N+](=O)[O-])c1`, the TGI in the experiment on OVCAR-8 ovarian, in the experiment on 786-0 renal, in the experiment on HCT-15 colon, with A549 NSCLC, in the experiment on HCC-2998 colon and in the experiment with HOP-92 NSCLC was greater than 100 µM each time. Moreover, the TGI in the experiment on OVCAR-3 ovarian, in the experiment on SW-620 colon and in the experiment with UO-31 renal was greater than 100 µM in each case.

For the molecule `O=C(Nc1nc(=S)c2c(ncn2CCO)[nH]1)c1ccccc1`, the TGI in the experiment on OVCAR-8 ovarian, in the experiment on 786-0 renal, with HCT-15 colon, in the experiment with A549 NSCLC, with HOP-92 NSCLC and in the experiment with OVCAR-3 ovarian was greater than 100 µM throughout. The TGI with SW-620 colon and in the experiment with UO-31 renal was greater than 100 µM throughout.

On to `COc1cc(C)c(O)c(C(=O)O)c1`, for which the TGI in the experiment with OVCAR-8 ovarian, in the experiment with 786-0 renal, in the experiment with HCT-15 colon, in the experiment with A549 NSCLC, in the experiment on HCC-2998 colon and in the experiment with OVCAR-3 ovarian was greater than 100 µM throughout. Also, the TGI with SW-620 colon and in the experiment with UO-31 renal was greater than 100 µM throughout.

Regarding `CCOC(=O)C1=C(Nc2cccc3ccccc23)OC/C1=N\NC(=O)c1ccccc1O`, the TGI is 67.8 µM in the experiment on OVCAR-8 ovarian; greater than 100 µM in the experiment on 786-0 renal; greater than 100 µM with HCT-15 colon; greater than 100 µM with A549 NSCLC; greater than 100 µM with HCC-2998 colon; 46.1 µM in the experiment with HOP-92 NSCLC. Further, the TGI with OVCAR-3 ovarian was 60 µM; with SW-620 colon it was greater than 100 µM; with UO-31 renal, greater than 87.6 µM.

For the molecule `COC(=O)C1=C(C(=O)OC)SC(=C(N=Nc2ccccc2)c2ccccc2)S1`, the TGI with OVCAR-8 ovarian, with 786-0 renal, in the experiment with HCT-15 colon, in the experiment on A549 NSCLC, in the experiment with HCC-2998 colon and in the experiment on HOP-92 NSCLC was greater than 100 µM each time. Also, the TGI with OVCAR-3 ovarian, with SW-620 colon and in the experiment on UO-31 renal was greater than 100 µM throughout.

Consider `C=C1CCc2occ(C)c2C2C1C1=C(CC(C)C1=O)C1OC12C` (stereo not drawn), for which the TGI in the experiment on OVCAR-8 ovarian, with 786-0 renal, with HCT-15 colon, in the experiment on A549 NSCLC, in the experiment with HCC-2998 colon and with HOP-92 NSCLC was greater than 100 µM each time. The TGI in the experiment with OVCAR-3 ovarian, in the experiment with SW-620 colon and with UO-31 renal was greater than 100 µM in each case.
